The text below walks through data of patent US11412737B2, “Mixtures of beflubutamid or optically enriched forms thereof with a second herbicide” (FMC Corporation, priority 2016, dated 2022).

One data set has as its system Hemp sesbania (SEHE8). Kind of data set: pre-emergence test, weed control. The data set is classed as in vivo. The settings on record: pre-emergent, 28 DAT; BFL at 187.5 g, PYX at 90 g, combination of both. In a few lines:
(§1)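 Pre-emergence; seeds in furrows in topsoil flats, watered before spraying. Moving sprayer, 30 gal/acre, nozzle 10.5 in. 4 flats per rate; greenhouse. Rated 21 DAT (wheat), 28 DAT (all species); 0–100 % control vs. untreated, mean of reps.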

Data set [1] concerns Large crabgrass (DIGSA). Nature of the data set: pre-emergence test, weed control. The data set is classed as in vivo. The settings on record: pre-emergent, 28 DAT; rate g ai/ha by row: r4 94, r5 50, r6 100, r7 52.5, r8 70, r9 94+52.5, r10 94+70, r11 50+52.5, r12 50+70, r13 100+52.5, r14 100+70. In a few lines:
as §1

A further data set concerns velvetleaf (IPOHE). Nature of the data set: pre-emergence test, weed control. The following applies: pre-emergent, 21 DAT, rate g ai/ha by row: r4 94, r5 125, r6 250, r7 125, r8 250, r9 500, r10 94+125, r11 125+125, r12 94+250, r13 125+250, r14 94+500, r15 125+500. The data set is classed as in vivo.
A further data set relates to Palmer amaranth (AMAPA). Nature of the data set: pre-emergence test, weed control. The data set is classed as in vivo, Amaranthus palmeri. The settings on record: pre-emergent, 28 DAT; BFL at 125 g/ha, DCI at 125 g/ha, combination of both. In a few lines:
as §1

The next data set concerns Common ragweed (AMBEL). Nature of the data set: post-emergence test, weed control. The format is in vivo. The settings on record: post-emergent, 28 DAT, height 3-4 cm, rate g ai/ha by row: r7 94, r8 125, r9 188, r10 125, r11 250, r12 94+125, r13 125+125, r14 188+125, r15 94+250, r16 125+250, r17 188+250.
Data set [2] concerns Large crabgrass (DIGSA). Nature of the data set: post-emergence test, weed control. The format is in vivo. The settings on record: post-emergent, 28 DAT; BFL at 188 g/ha, DCI at 125 g/ha, combination of both.
The next data set deals with Rice flatsedge (CYPIR). Nature of the data set: post-emergence test, weed control. The data set is classed as in vivo. The settings on record: post-emergent, 28 DAT, height 1-2 cm, rate g ai/ha by row: r25 94, r26 125, r27 188, r28 125, r29 250, r30 94+125, r31 125+125, r32 188+125, r33 94+250, r34 125+250, r35 188+250.
The next data set relates to Wild oat (AVEFA). Nature of the data set: post-emergence test, weed control. The format is in vivo, Avena fatua. The following applies: post-emergent, 28 DAT; for percentage of weed control, AVEFA: height 11 cm, rate g ai/ha by row: r25 94, r26 125, r27 188, r28 125, r29 250, r30 94+125, r31 125+125, r32 188+125, r33 94+250, r34 125+250, r35 188+250; for control of wild oats (AVEFA): DCI at 250 g/ha. The protocol:
(§2) Test compositions containing the test compounds were diluted with water to provide the appropriate test rate concentrations.
(§3) For post-emergence testing, seeds of each species for each rate of application of each herbicide solution were planted in 7.5 cm×7.5 cm plastic pots filled with potting soil. The seeds were germinated and the resulting plants were allowed to grow in a greenhouse until they reached a growth stage, such as height, suitable for testing. Treatments were applied using compressed air in a track spray chamber at 30 gallons/acre (280 L/ha) using a TeeJet 8001E nozzle at 40 psi (2.76 bars). Pots of post-emergent treated plants were returned to the greenhouse and not watered for 24 hours after treatment. Thereafter they were regularly watered and fertilized for the duration of the test.
The control of weeds was evaluated in each experimental test at 21 for wheat and 28 days after treatment (DAT) for all species. Data were analyzed using Minitab software at 95% confidence interval. The results, shown as an average of the replications, were compared with results observed in untreated control flats in the same tests. Percent control was determined by a method similar to the 0 to 100 rating system disclosed in “Research Methods in Weed Science,” 2nd ed., B. Truelove, Ed.; Southern Weed Science Society; Auburn University, Auburn, Ala., 1977. The rating system is as follows in Table 1.

A further data set concerns Canola (CN). Nature of the data set: post-emergence test, crop injury. The format is in vivo. The settings on record: post-emergent, 28 DAT (Table 12 test). How it is done: as §2, §3
The control of weeds was evaluated in each experimental test at 21 for wheat and 28 days after treatment (DAT) for all species. Data were analyzed using Minitab software at 95% confidence interval. The results, shown as an average of the replications, were compared with results observed in untreated control flats in the same tests. Percent control was determined by a method similar to the 0 to 100 rating system disclosed in “Research Methods in Weed Science,” 2nd ed., B. Truelove, Ed.; Southern Weed Science Society; Auburn University, Auburn, Ala., 1977. […]

For another data set, the system named is Silky windgrass (APSEV). Nature of the data set: post-emergence test, weed control. The settings on record: post-emergent, 28 DAT, height 1-1.5 cm, rate g ai/ha by row: r25 94, r26 125, r27 188, r28 125, r29 250, r30 94+125, r31 125+125, r32 188+125, r33 94+250, r34 125+250, r35 188+250. The data set is classed as in vivo.

For the compound `CCC(Oc1ccc(F)c(C(F)(F)F)c1)C(=O)NCc1ccccc1` (racemic) [BFL, 2-[4-fluoro-3-(trifluoromethyl)phenoxy]-N-(phenylmethyl)butanamide], the “control of hemp sesbania” value with Hemp sesbania (SEHE8) came out at 28%. In addition, the “percentage of weed control, DIGSA” value in the data set on Large crabgrass (DIGSA) [1] is given as 25%. The “percentage of weed control, Morningglory IPOHE” value with velvetleaf (IPOHE) (94 g ai/ha) was found to be 10%; with velvetleaf (IPOHE) (250 g ai/ha), 8%. Besides, in the data set on Palmer amaranth (AMAPA), the “control of Palmer amaranth (AMAPA)” value is 69%. In addition, the “percentage of weed control, AMBEL” value in the data set on Common ragweed (AMBEL) (94 g ai/ha) came out at 5%; with Common ragweed (AMBEL) (125 g ai/ha), 6%; in the data set on Common ragweed (AMBEL) (188 g ai/ha) it was 12%. In the data set with Large crabgrass (DIGSA) [2], the “control of large crabgrass (DIGSA)” value came to 19%. Moreover, the “percentage of weed control, CYPIR” value in the data set with Rice flatsedge (CYPIR) (94 g ai/ha) is 0%; in the data set with Rice flatsedge (CYPIR) (188 g ai/ha), 4%. Also, the “percentage of weed control, AVEFA” value in the data set with Wild oat (AVEFA) (94 g ai/ha) is 0%; in the data set with Wild oat (AVEFA) (188 g ai/ha) it was 5%. The “control of wild oats (AVEFA)” value is 0% in the data set on Wild oat (AVEFA) (BFL at 125 g/ha, combination of both) and 5% with Wild oat (AVEFA) (BFL at 188 g/ha, combination of both). For the same compound, the “control of wild oats” value in the data set with Wild oat (AVEFA) (BFL at 187.5 g, PYX at 90 g, combination of both) is given as 15%. For the same compound, in the data set on Canola (CN), the “crop injury on canola” value is on record as “significant crop injury”. For the same compound, the “percentage of weed control, APSEV” value was determined as 0% in the data set with Silky windgrass (APSEV) (94 g ai/ha) and 5% in the data set with Silky windgrass (APSEV) (188 g ai/ha).
